Measurements as given in PubChem BioAssay AID2060885 (Molecular Pharmacology Branch, DTP, NCI, 2025).

System: NCI-H23 complex spheroids with HUVEC/MSC, viability
Experiment: Anticancer human tumor NCI-H23 cell line growth inhibition [RAS];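 further: spheroids exposed to compound for 7 days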;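 on viability, T/C: 100% = DMSO vehicle control viability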
Conditions: for IC50: curve of first compound; for viability, T/C: stronger effect = lower value
Outline: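 Agents were tested in combination matrices in half-log decrements from a top concentration at or near clinical Cmax (10 microM if undetermined). Targets were multi-cell spheroids of tumour lines plus HUVEC and MSC stromal cells.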

[1] = second compound 0.000949 µM, first compound 0.00316 µM
[2] = second compound 0.000949 µM, first compound 0.01 µM
[3] = second compound 0.000949 µM, first compound 0.0316 µM
[4] = second compound 0.000949 µM, first compound 0.1 µM
[5] = second compound 0.003 µM, first compound 0.00316 µM
[6] = second compound 0.003 µM, first compound 0.01 µM
[7] = second compound 0.003 µM, first compound 0.0316 µM
[8] = second compound 0.003 µM, first compound 0.1 µM
[9] = second compound 0.00949 µM, first compound 0.00316 µM
[10] = second compound 0.00949 µM, first compound 0.01 µM
[11] = second compound 0.00949 µM, first compound 0.0316 µM
[12] = second compound 0.00949 µM, first compound 0.1 µM
[13] = second compound 0.03 µM, first compound 0.00316 µM
[14] = second compound 0.03 µM, first compound 0.01 µM
[15] = second compound 0.03 µM, first compound 0.0316 µM
[16] = second compound 0.03 µM, first compound 0.1 µM
[17] = second compound 0.0949 µM, first compound 0.00316 µM
[18] = second compound 0.0949 µM, first compound 0.01 µM
[19] = second compound 0.0949 µM, first compound 0.0316 µM
[20] = second compound 0.0949 µM, first compound 0.1 µM
[21] = second compound 0.3 µM, first compound 0.00316 µM
[22] = second compound 0.3 µM, first compound 0.01 µM
[23] = second compound 0.3 µM, first compound 0.0316 µM
[24] = second compound 0.3 µM, first compound 0.1 µM
[25] = second compound 0.000949 µM, first compound 0.316 µM
[26] = second compound 0.000949 µM, first compound 1 µM
[27] = second compound 0.000949 µM, first compound 3.16 µM
[28] = second compound 0.000949 µM, first compound 10 µM
[29] = second compound 0.003 µM, first compound 0.316 µM
[30] = second compound 0.003 µM, first compound 1 µM
[31] = second compound 0.003 µM, first compound 3.16 µM
[32] = second compound 0.003 µM, first compound 10 µM
[33] = second compound 0.00949 µM, first compound 0.316 µM
[34] = second compound 0.00949 µM, first compound 1 µM
[35] = second compound 0.00949 µM, first compound 3.16 µM
[36] = second compound 0.00949 µM, first compound 10 µM
[37] = second compound 0.03 µM, first compound 0.316 µM
[38] = second compound 0.03 µM, first compound 1 µM
[39] = second compound 0.03 µM, first compound 3.16 µM
[40] = second compound 0.03 µM, first compound 10 µM
[41] = second compound 0.0949 µM, first compound 0.316 µM
[42] = second compound 0.0949 µM, first compound 1 µM
[43] = second compound 0.0949 µM, first compound 3.16 µM
[44] = second compound 0.0949 µM, first compound 10 µM
[45] = second compound 0.3 µM, first compound 0.316 µM
[46] = second compound 0.3 µM, first compound 1 µM
[47] = second compound 0.3 µM, first compound 3.16 µM
[48] = second compound 0.3 µM, first compound 10 µM

Compound `CC(C)n1nc(-c2ccc3oc(N)nc3c2)c2c(N)ncnc21` + CCn1c(-c2cccnc2C(C)OC)c2c3cc(ccc31)N1CCOC(CC(NC(=O)C(C(C)C)N(C)C(=O)C3(F)CCN(C(=O)C#CC(C)(C)N(C)C)CC3)C(=O)N3CCCC(N3)C(=O)OCC(C)(C)C2)C1 has an IC50 (second compound 0.000949 µM) of under 0.316 nM, an IC50 (second compound 0.003 µM) of under 0.316 nM and an IC50 (second compound 0.00949 µM) of under 0.316 nM. For the same compound, the IC50 (second compound 0.03 µM) was under 0.316 nM, the IC50 (second compound 0.0949 µM) was under 0.316 nM and the IC50 (second compound 0.3 µM) was under 0.316 nM. For the same compound, the viability, T/C (second compound 0.000949 µM, first compound 0.000316 µM) was 33.1%, the viability, T/C (second compound 0.000949 µM, first compound 0.001 µM) was 33.1% and the viability, T/C [1] was 22%. For the same compound, the viability, T/C [2] was 18.4%, the viability, T/C [3] was 16.5% and the viability, T/C [4] was 8.34%. For the same compound, the viability, T/C (second compound 0.003 µM, first compound 0.000316 µM) was 30.4%, the viability, T/C (second compound 0.003 µM, first compound 0.001 µM) was 25% and the viability, T/C [5] was 20.8%. The viability, T/C [6] was 18.1%, the viability, T/C [7] was 12.2% and the viability, T/C [8] was 8.88%. For the same compound, the viability, T/C (second compound 0.00949 µM, first compound 0.000316 µM) was 28%, the viability, T/C (second compound 0.00949 µM, first compound 0.001 µM) was 24.2% and the viability, T/C [9] was 22.4%. For the same compound, the viability, T/C [10] was 17.7%, the viability, T/C [11] was 12% and the viability, T/C [12] was 9.44%. The viability, T/C (second compound 0.03 µM, first compound 0.000316 µM) was 26.2%, the viability, T/C (second compound 0.03 µM, first compound 0.001 µM) was 24.5% and the viability, T/C [13] was 20.3%. It also gave a viability, T/C [14] of 18.6%, a viability, T/C [15] of 10.4% and a viability, T/C [16] of 9.27%. The viability, T/C (second compound 0.0949 µM, first compound 0.000316 µM) was 27.5%, the viability, T/C (second compound 0.0949 µM, first compound 0.001 µM) was 25.4% and the viability, T/C [17] was 24.9%. The viability, T/C [18] was 15.9%, the viability, T/C [19] was 9.52% and the viability, T/C [20] was 10.3%. It also gave a viability, T/C (second compound 0.3 µM, first compound 0.000316 µM) of 24.9%, a viability, T/C (second compound 0.3 µM, first compound 0.001 µM) of 21.9% and a viability, T/C [21] of 22.9%. It also gave a viability, T/C [22] of 16.1%, a viability, T/C [23] of 10.5% and a viability, T/C [24] of 9.53%.
Compound `CC1(O)CCCC1n1c(=O)c(C(F)F)cc2cnc(NC3CCN(S(C)(=O)=O)CC3)nc21` (stereo not drawn) + CCn1c(-c2cccnc2C(C)OC)c2c3cc(ccc31)N1CCOC(CC(NC(=O)C(C(C)C)N(C)C(=O)C3(F)CCN(C(=O)C#CC(C)(C)N(C)C)CC3)C(=O)N3CCCC(N3)C(=O)OCC(C)(C)C2)C1 has an IC50 (second compound 0.000949 µM) of under 31.6 nM, an IC50 (second compound 0.003 µM) of under 31.6 nM and an IC50 (second compound 0.00949 µM) of under 31.6 nM. It also gave an IC50 (second compound 0.03 µM) of under 31.6 nM, an IC50 (second compound 0.0949 µM) of under 31.6 nM and an IC50 (second compound 0.3 µM) of under 31.6 nM. The viability, T/C [3] was 27.5%, the viability, T/C [4] was 18.5% and the viability, T/C [25] was 15%. The viability, T/C [26] was 21.3%, the viability, T/C [27] was 18.9% and the viability, T/C [28] was 1.72%. For the same compound, the viability, T/C [7] was 24.7%, the viability, T/C [8] was 16.5% and the viability, T/C [29] was 17.4%. It also gave a viability, T/C [30] of 17.5%, a viability, T/C [31] of 20.4% and a viability, T/C [32] of 1.47%. For the same compound, the viability, T/C [11] was 25.2%, the viability, T/C [12] was 14.7% and the viability, T/C [33] was 15.8%. For the same compound, the viability, T/C [34] was 17.1%, the viability, T/C [35] was 17.4% and the viability, T/C [36] was 2.12%. For the same compound, the viability, T/C [15] was 23%, the viability, T/C [16] was 16.8% and the viability, T/C [37] was 15.1%. The viability, T/C [38] was 18.7%, the viability, T/C [39] was 14.6% and the viability, T/C [40] was 2.81%. For the same compound, the viability, T/C [19] was 19.2%, the viability, T/C [20] was 17.1% and the viability, T/C [41] was 17.8%. The viability, T/C [42] was 15.5%, the viability, T/C [43] was 14.9% and the viability, T/C [44] was 2.88%. It also gave a viability, T/C [23] of 19.5%, a viability, T/C [24] of 16.9% and a viability, T/C [45] of 15.1%. It also gave a viability, T/C [46] of 16.7%, a viability, T/C [47] of 15.6% and a viability, T/C [48] of 2.05%.
`CCN1CCN(Cc2ccc(Nc3ncc(F)c(-c4cc(F)c5nc(C)n(C(C)C)c5c4)n3)nc2)CC1` + CCn1c(-c2cccnc2C(C)OC)c2c3cc(ccc31)N1CCOC(CC(NC(=O)C(C(C)C)N(C)C(=O)C3(F)CCN(C(=O)C#CC(C)(C)N(C)C)CC3)C(=O)N3CCCC(N3)C(=O)OCC(C)(C)C2)C1 was tested, and the IC50 (second compound 0.000949 µM) was under 3.16 nM, the IC50 (second compound 0.003 µM) was under 3.16 nM and the IC50 (second compound 0.00949 µM) was under 3.16 nM. The IC50 (second compound 0.03 µM) was under 3.16 nM, the IC50 (second compound 0.0949 µM) was under 3.16 nM and the IC50 (second compound 0.3 µM) was under 3.16 nM. For the same compound, the viability, T/C [1] was 27.6%, the viability, T/C [2] was 26.4% and the viability, T/C [3] was 14%. It also gave a viability, T/C [4] of 15.9%, a viability, T/C [25] of 14.6% and a viability, T/C [26] of 10.6%. For the same compound, the viability, T/C [5] was 28.6%, the viability, T/C [6] was 20.8% and the viability, T/C [7] was 16.3%. The viability, T/C [8] was 15%, the viability, T/C [29] was 12.9% and the viability, T/C [30] was 10.8%. The viability, T/C [9] was 26.9%, the viability, T/C [10] was 21.9% and the viability, T/C [11] was 16%. It also gave a viability, T/C [12] of 14.2%, a viability, T/C [33] of 12.3% and a viability, T/C [34] of 11.5%. For the same compound, the viability, T/C [13] was 30.6%, the viability, T/C [14] was 21.5% and the viability, T/C [15] was 18%. The viability, T/C [16] was 12.5%, the viability, T/C [37] was 11.2% and the viability, T/C [38] was 13.2%. For the same compound, the viability, T/C [17] was 23.4%, the viability, T/C [18] was 22.1% and the viability, T/C [19] was 15.8%. It also gave a viability, T/C [20] of 13.2%, a viability, T/C [41] of 10.2% and a viability, T/C [42] of 14.9%. It also gave a viability, T/C [21] of 22.2%, a viability, T/C [22] of 19.3% and a viability, T/C [23] of 14.2%. The viability, T/C [24] was 12.1%, the viability, T/C [45] was 12% and the viability, T/C [46] was 14.2%.
With `C[C@@H](NC(=O)c1ncnc(N)c1Cl)c1ncc(C(=O)Nc2cc(C(F)(F)F)c(Cl)cn2)s1` + CCn1c(-c2cccnc2C(C)OC)c2c3cc(ccc31)N1CCOC(CC(NC(=O)C(C(C)C)N(C)C(=O)C3(F)CCN(C(=O)C#CC(C)(C)N(C)C)CC3)C(=O)N3CCCC(N3)C(=O)OCC(C)(C)C2)C1 the IC50 (second compound 0.000949 µM) was under 31.6 nM, the IC50 (second compound 0.003 µM) was under 31.6 nM and the IC50 (second compound 0.00949 µM) was under 31.6 nM. For the same compound, the IC50 (second compound 0.03 µM) was under 31.6 nM, the IC50 (second compound 0.0949 µM) was under 31.6 nM and the IC50 (second compound 0.3 µM) was under 31.6 nM. It also gave a viability, T/C [3] of 36.4%, a viability, T/C [4] of 32.5% and a viability, T/C [25] of 24.2%. It also gave a viability, T/C [26] of 34.2%, a viability, T/C [27] of 32.5% and a viability, T/C [28] of 25.4%. For the same compound, the viability, T/C [7] was 33%, the viability, T/C [8] was 31.1% and the viability, T/C [29] was 29.7%. The viability, T/C [30] was 33.3%, the viability, T/C [31] was 31.2% and the viability, T/C [32] was 25.3%. It also gave a viability, T/C [11] of 32.8%, a viability, T/C [12] of 27.5% and a viability, T/C [33] of 30.9%. The viability, T/C [34] was 30.9%, the viability, T/C [35] was 30.8% and the viability, T/C [36] was 24.5%. The viability, T/C [15] was 30.7%, the viability, T/C [16] was 30.1% and the viability, T/C [37] was 28.1%. For the same compound, the viability, T/C [38] was 29.3%, the viability, T/C [39] was 26.9% and the viability, T/C [40] was 27.9%. It also gave a viability, T/C [19] of 25.8%, a viability, T/C [20] of 29.3% and a viability, T/C [41] of 31.6%. For the same compound, the viability, T/C [42] was 28.6%, the viability, T/C [43] was 23.6% and the viability, T/C [44] was 28.4%. It also gave a viability, T/C [23] of 27.3%, a viability, T/C [24] of 27.4% and a viability, T/C [45] of 31%. The viability, T/C [46] was 23.1%, the viability, T/C [47] was 26.3% and the viability, T/C [48] was 27.4%.
